{
  "source": "paper PMC11173677",
  "about": "“Identification and Evaluation of Olive Phenolics in the Context of Amine Oxidase Enzyme Inhibition and Depression: In Silico Modelling and In Vitro Validation” (Molecules, 2024)",
  "key": {"MAO-A [1]": {"system": "T1, MAO-A", "T1 construct": "endogenous in cells; host or cells: BJ human foreskin fibroblasts stimulated with DEX or HC", "assay": "MAO-A activity assay in hESC-derived neurons stimulated with ATRA", "format": "cell-based, human", "details": "1 μM ATRA 24 h, then TCP 5 μM, OLC 50 μM or OLP 50 μM for 24 h", "description": "(§1) An in vitro model of MDD was designed for stem cell-derived neuronal cells through incubation of 1 μM all-trans retinoic acid (Sigma-Aldrich PHR1187, St. Louis, MO, USA). All cell treatments were conducted in duplicate and replicated using independently differentiating neuronal plates.\n(§2) Activity assays were commercially sourced from BioVision (Abcam, BioVision ab241031, Waltham, MA, USA) and were performed according to manufacturer’s instructions. The treatment groups were plated in duplicate on a black, flat 96-well microplate. The cells were homogenised in assay buffer using a microtube mixer at 4 °C and centrifuged at 10,000× g for 10 min. A Bradford assay was performed to determine the total protein concentration within each cell pellet (200 μg/well for BJ cells, 40 μg/well for hESC-derived neurons). Approximately 40 μL of supernatant was loaded into wells along with 10 μL of either […], or assay buffer for total MAO activity. A H2O2 standard was pipetted as supplied and 50 μL of reaction mix was pipetted into all wells. Using a CLARIOstar Plus Microplate Reader, (BMG Labtech, Ortenberg, Germany), fluorescence was measured kinetically at 25 °C for 60 min with Ex/Em = 535/587 nm."}, "total MAO": {"system": "total MAO", "assay": "Total MAO activity assay in hESC-derived neurons stimulated with ATRA", "format": "cell-based, human", "details": "1 μM ATRA 24 h, then TCP 5 μM, OLC 50 μM or OLP 50 μM for 24 h", "description": "as §1, §2"}, "BJ cells": {"system": "BJ cells", "assay": "Viability of BJ cells (CellTiter-Blue Cell Viability Assay)", "format": "cell-based, human", "details": "for IC50: Homo sapiens, BJ", "description": "The BJ cells were seeded at densities of 10,000 cells in black flat bottom 96-well plates (Nalge Nunc, Penfield, Rochester, NY, USA) and treated with a dose–response of OLC (0–500 μM) and OLP (0–500 μM) for 24 h, 48 h, 72 h, and 7 days at 37 °C, 5% (v/v) CO2. Cell viability was measured using the Cell-Titer Blue® Assay kit (Promega, Madison, WI, USA) according to the manufacturer’s instructions. Cell-Titer Blue reagent was added to each well and incubated for 4 h at 37 °C with 5% (v/v) CO2 before the fluorescence intensity was read using the CLARIOstar Microplate Reader (BMG Labtech, Ortenberg, Germany).\nA Nikon Eclipse Ts2 light microscope (Nikon Ti TS2-S-SM, Tokyo, Japan) was used to image untreated and treated BJ cells (OLP or OLC: 0–100 μM) at 4× objective magnification at 20, 44, and 120 h (Figures S1 and S2)."}, "purified MAO-A": {"molecular_target": "T2, purified MAO-A (Homo sapiens, UniProt P21397)", "T2 construct": "purchased Sigma-Aldrich MAK295", "T2 sequence (P21397 1-527)": "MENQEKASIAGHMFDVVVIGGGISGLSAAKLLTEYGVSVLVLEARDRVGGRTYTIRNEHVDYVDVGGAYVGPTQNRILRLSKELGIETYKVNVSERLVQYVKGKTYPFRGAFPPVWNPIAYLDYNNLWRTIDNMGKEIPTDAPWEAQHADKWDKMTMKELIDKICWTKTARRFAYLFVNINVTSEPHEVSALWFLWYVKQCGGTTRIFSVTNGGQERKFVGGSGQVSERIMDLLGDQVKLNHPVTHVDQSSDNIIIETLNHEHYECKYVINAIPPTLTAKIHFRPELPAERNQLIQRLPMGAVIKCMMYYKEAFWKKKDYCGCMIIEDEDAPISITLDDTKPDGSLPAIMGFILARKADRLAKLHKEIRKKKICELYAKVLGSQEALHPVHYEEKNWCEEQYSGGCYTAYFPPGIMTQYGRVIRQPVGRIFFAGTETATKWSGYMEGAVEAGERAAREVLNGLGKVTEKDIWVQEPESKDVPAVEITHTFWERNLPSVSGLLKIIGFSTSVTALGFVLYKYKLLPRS", "assay": "MAO-A direct screening assay (inhibitor screening kit)", "format": "biochemical", "details": "purified enzyme; read-out: IC50, inhibition of MAO-A", "description": "The assays were conducted for MAO-A and MAO-B according to the manufacturer’s instructions."}, "MAO-A [2]": {"system": "T1, MAO-A", "assay": "MAO-A activity assay in corticosteroid-stimulated BJ cells", "format": "cell-based, human", "details": "then 50 μM compound 24 h", "description": "(§3) The BJ cells were subsequently incubated with 10 μM HC or 100 μM DEX to stimulate MAO expression. […] The untreated BJ cells received normal growth medium. The cells were collected, homogenised, and analysed through Western blotting where the expression of MAO-A/B was determined through immunodetection of protein subtypes.\nas §2"}, "MAO-B": {"system": "T3, MAO-B", "T3 construct": "endogenous in cells; host or cells: BJ human foreskin fibroblasts stimulated with DEX or HC", "assay": "MAO-B activity assay in corticosteroid-stimulated BJ cells", "format": "cell-based, human", "details": "then 50 μM compound 24 h", "description": "as §3, §2"}, "LSD1": {"system": "T4, LSD1", "T4 construct": "nuclear proteins extracted from the BJ cultures were directly assayed for LSD1 activity; endogenous in cells; host or cells: BJ human foreskin fibroblasts (nuclear extract, DEX-stimulated)", "assay": "LSD1 activity in nuclear extracts of BJ cells stimulated with DEX", "format": "cell-based, human", "details": "DEX 50 μM 72 h, then TCP 5 μM or OLP, HT, HTA 50 μM for 48 h", "quoted_text": "Histone demethylase LSD1 activity assay\n4µL of nuclear extracts containing 5µg protein was added to designated strip wells with stably\ncaptured LSD1 substrate (H3K4me2), followed by an additional 26µL of H3K4me2 (HG3)\nsubstrate diluted in assay buffer (HG2). In no enzyme control wells, the 4µL of nuclear\nextracts was replaced with 4µL of assay buffer. Blank wells contained 30µL of assay buffer.\nA standard curve was generated by adding 1µL of standard (HG4) at incrementally increasing\nconcentrations (0.1-10ng/µL) to 29µL of assay buffer in designated standard wells. After all\nwells were loaded appropriately, the assay plate was incubated away from light at room\ntemperature for 60 minutes. Following incubation, contents were aspirated and wells were\nwashed three times with 150µL of wash buffer (HG1). 50µL of capture antibody (HG5)\ndiluted at a 1:1000 ratio was then added to all wells before incubating at room temperature\nfor 60 minutes on a rotating platform. Well contents were then aspirated and washed four\ntimes with 150µL of wash buffer. 50µL of detection antibody (HG6) diluted at a 1:1000 ration\nwas then added to each well. Assay plate was then incubated for a final time at room\ntemperature for 30 minutes. Well contents were aspirated again, followed by six washes with\n150µL wash buffer. 50µL of fluoro-developer (HG7) was then added into each well and\nallowed to develop away from light for 1-5 minutes. Fluorescence was then read on a\nCLARIOstar Microplate Reader (BMG Labtech, Ortenberg Germany) at Ex/Em ="}},
  "data": [
    {"compound": "COC(=O)[C@H](O)CC(=O)OCCc1ccc(O)c(O)c1", "note": "[OLP, oleohydroxypyretol]", "values": [
      {"measurement": "MAO-A activity in hESC-derived neurons", "setting": "MAO-A [1]", "result": "significantly reduced"},
      {"measurement": "total MAO activity in hESC-derived neurons", "setting": "total MAO", "result": "significantly reduced"},
      {"measurement": "relative viability of BJ cells at the highest concentration", "setting": "BJ cells; 500 μM", "result": "decreased"},
      {"measurement": "proliferation potential of BJ cells", "setting": "BJ cells; 25, 50, 75 and 100 μM, similar to untreated cells", "result": "maintained their proliferation potential"},
      {"measurement": "IC50", "setting": "BJ cells; 24 h", "result": 220, "unit": "µM"},
      {"measurement": "IC50", "setting": "BJ cells; 48 h", "result": 257, "unit": "µM"},
      {"measurement": "toxicity to BJ cells at the concentrations used in further experiments", "setting": "BJ cells; concentrations used in further experiments (50 μM)", "result": "non-toxic"},
      {"measurement": "viability of BJ cells at lower concentrations", "setting": "BJ cells; up to 200 μM", "result": "largely maintained"},
      {"measurement": "IC50", "setting": "purified MAO-A", "result": 0.85, "unit": "µM"},
      {"measurement": "MAO-A activity in BJ cells", "setting": "MAO-A [2]; 10 μM HC 5 days", "result": "downregulate"},
      {"measurement": "MAO-A activity in BJ cells", "setting": "MAO-A [2]; 100 μM DEX 7 days", "result": "downregulate"},
      {"measurement": "MAO-B activity in BJ cells", "setting": "MAO-B; 10 μM HC 5 days", "result": "downregulate"},
      {"measurement": "MAO-B activity in BJ cells", "setting": "MAO-B; 100 μM DEX 7 days", "result": "downregulate"},
      {"measurement": "LSD1 activity in BJ cultures stimulated with DEX", "setting": "LSD1", "result": "significant reduction"}
    ]}
  ]
}
